Experimental data taken from patent publication EP0281242B1, “Beta-alkylmelatonins” (ELI LILLY AND COMPANY, priority 1987, dated 1988).

Tested on: ovulation
Experiment: not given
Conditions: compared to melatonin; cited from earlier work
In the case of `COc1cc2c(CCNC(C)=O)c[nH]c2cc1F` [6-fluoromelatonin], the ovulation blocking activity is listed as “increased ovulation blocking activity”. In the case of `COc1cc2c(CC(C)NC(C)=O)c[nH]c2cc1Cl` (stereo not drawn) [α-Methyl-6-chloromelatonin], the ovulation blocking activity is given as “no increased ovulation-blocking activity”. In the case of `COc1cc2c(CCNC(C)=O)c[nH]c2cc1Cl` [6-chloromelatonin], the ovulation blocking activity is listed as “increased ovulation blocking activity”.

Tested on: rats and mice
Experiment: not given
Conditions: cited from earlier work
For `COc1ccc2[nH]cc(CCNC(C)=O)c2c1` [Melatonin, N-[2-(5-methoxy-3-indolyl)ethyl]acetamide], the “inhibition of the estrous phase of the estrous cycle and of ovulation” value is listed as “inhibited both the estrous phase of the estrous cycle and ovulation”.

Tested on: Adult female rats
Experiment: Ovulation inhibition in adult female rats (ova in the oviduct on the day of estrus)
Type: in vivo
Conditions: Rattus norvegicus, po; administered orally at noon on the day of proestrus; dose giving a 50% decrease in the number of ovulating non-control rats relative to control rats; read-out: Minimum effective inhibitory dose in mg per kilogram of rat weight
Description: The degree of ovulation inhibitory activity was determined according to the following protocol.
Adult female rats with regular estrus cycles of four days each are employed. The estrus cycle consists of 2 days of diestrus followed by a day of proestrus and then a day of estrus. […] On the afternoon of proestrus, luteinizing hormone (LH) is released into the blood by the pituitary gland. The LH travels to the ovary where it induces ovulation, resulting in the presence of eggs in the oviduct on the day of estrus.
The test compound is administered orally to the non-control rats at noon on the day of proestrus. Both control and non-control rats are sacrificed on the following day (estrus). The oviduct is removed from each rat and examined microscopically for the presence of ova.
Melatonin is included in Table I for comparative purposes.
`COc1ccc2[nH]cc(CCNC(C)=O)c2c1` [Melatonin, N-[2-(5-methoxy-3-indolyl)ethyl]acetamide] showed a minimal effective dose of 32 mg/kg. In the case of `COc1cc2c([C@@H](C)CNC(C)=O)c[nH]c2cc1Cl` [R-(+)-β-methyl-6-chloromelatonin], the minimal effective dose is reported as 1 mg/kg. In the case of `COc1cc2c(C(C)CNC(C)=O)c[nH]c2cc1Cl` (racemic) [β-methyl-6-chloro-melatonin, β-Methyl-6-chloromelatonin], the minimal effective dose is reported as 2 mg/kg. With `COc1cc2c([C@H](C)CNC(C)=O)c[nH]c2cc1Cl` [S-(-)-β-methyl-6-chloromelatonin] the minimal effective dose was greater than 5 mg/kg. In the case of `COc1cc2c(C(C)CNC(C)=O)c[nH]c2c(Cl)c1Cl` (racemic) [β-Methyl-6,7-dichloro-melatonin, β-methyl-6,7-dichloromelatonin], the minimal effective dose is reported as 15 mg/kg. Compound `CCC(CNC(C)=O)c1c[nH]c2ccc(OC)cc12` (racemic) [β-ethyl melatonin, β-Ethylmelatonin] has a minimal effective dose of 1 mg/kg. Work on `COc1ccc2[nH]cc([C@@H](C)CNC(C)=O)c2c1` [R-(+)-β-methyl melatonin, R-(+)-β-Methylmelatonin] yielded a minimal effective dose of 1 mg/kg. Compound `COc1ccc2[nH]cc(C(C)CNC(C)=O)c2c1` (racemic) [β-methyl melatonin, β-Methylmelatonin] has a minimal effective dose of 1 mg/kg.
